Reference: patent US20250136581A1, “SUBSTITUTED TRIAZOLE DERIVATIVE, PREPARATION METHOD THEREFOR, PHARMACEUTICAL COMPOSITION THEREOF, AND USE THEREOF” (SHANGHAI SIMR BIOTECHNOLOGY CO., LTD., priority 2021, published 2025)

Target: human α5β3γ2 receptors (α5-GABAA receptor) (Homo sapiens (Human), UniProt P18507+P31644)
Assay: 3H-flunitrazepam competition binding, human α5β3γ2 GABAA receptor
Conditions: HEK293 cell membranes, 1 nM 3H-flunitrazepam; read-out: α5-GABAAR Ki
Description: The affinity of the compound to each subtype of GABAA receptor was determined by competing for the binding of ^3H-flunitrazepam to HEK293 cells stably expressing human α1β3γ2, α2β3γ2, α3β3γ2, and α5β3γ2 receptors.
The cells were suspended in 50 mM Tris-HCl buffer (pH=7.4), homogenized 10 times on ice with a homogenizer for 20 seconds, and centrifuged at 1000 g for 10 minutes at 4° C. The supernatant was collected, and the above steps were repeated. The supernatant was centrifuged at 4° C. (33800 g; Thermo, rotor: A27-8×50) for 60 minutes, and the precipitate was resuspended in Tris buffer (50 mM Tris-HCl, 10 mM MgCl2, 0.5 mM EDTA, 10% glycerol). Protein was measured (BCA method, Pierce), and 1 mL aliquots were prepared and stored at −80° C.
The radioligand competition binding assay was performed in a 200 μL system (96-well plate) containing 100 μL of cell membrane. The concentration of ^3H-flunitrazepam was 1 nM and the concentration of the test compound was in the range of […]. Flumazenil was used as a control. 1 μL of 2 mM flumazenil (final concentration […]) was added to the low signal control well (Low control, LC), and 1 μL of DMSO was added to the high signal control well (High control, HC). The final concentration of target membrane protein was […]. All test compound sample storage solutions were 10 mM. The working concentration of the samples was to dilute all the samples to 0.2 mM with DMSO, followed by 4-fold serial gradient dilutions for a total of 8 concentration gradients. The 96-well plate was sealed with a sealing film, and then incubated on a shaker at room temperature for 1 hour. At the same time, the GF/C filter plate was soaked in soaking buffer (0.3% PEI, stored at 4° C.) for at least 0.5 hours. After the binding incubation was completed, the cells were collected onto a GF/C filter plate using a cell harvester. The plate was washed four times with washing buffer (50 mM Tris-HCl, pH 7.4, stored at 4° C.). After drying in a 50° C. oven for 1 hour, the bottom of the dried GF/C filter plate was sealed. The residual radioactivity on the filter membrane was detected using liquid scintillation counting. 50 μL of scintillation fluid was added to each well, and the plate was sealed. The readings were taken using a Microbeta2. The inhibitory activity of the test sample on the binding of ^3H-flunitrazepam to GABAA receptor membrane proteins was calculated, and the IC50 of each test sample was calculated by dose-effect curve fitting (GraphPad Prism 5 software), and the Ki of the sample was calculated from the IC50, thus evaluating the binding ability of the sample to the various subtypes of GABAA receptors.

Compound	Ki [nM]
4-(6-((1-(4-(Difluoromethyl)phenyl)-4-methyl-1H-1,2,3-triazol-5-yl)methoxy)pyridin-3-yl)-1-methyl-1,4-diazepan-2-one [Example 17]	4.32
Cc1nnn(-c2ccc(C(F)F)cc2)c1COc1ccc(N2CC[C@@H]3CCNC(=O)[C@@H]3C2)nn1 (relative stereo) [Example 123, cis-7-(6-((1-(4-(Difluoromethyl)phenyl)-4-methyl-1H-1,2,3-triazol-5-yl)methoxy)pyridazin-3-yl)octahydro-2,7-naphthyridin-1(2H)-one]	7.2
Cc1nnn(-c2ccc(C(F)F)cc2)c1COc1ccc(N2CCN3CC(C(C)(C)C)NC(=O)[C@@H]3C2)nn1 (single isomer, unassigned) [Example 202]	2.32
Cc1nnn(-c2ccc(C(F)F)cc2)c1COc1ccc(N2CCN3CC(c4cnn(C)c4)NC(=O)[C@@H]3C2)nn1 (single isomer, unassigned) [Example 211]	2.02
Cc1nnn(-c2ccc(C(F)F)cc2)c1COc1ccc(N2CCNC(C)(C)C2=O)nn1 [Example 10, 1-(6-((1-(4-(Difluoromethyl)phenyl)-4-methyl-1H-1,2,3-triazol-5-yl)methoxy)pyridazin-3-yl)-3,3-dimethylpiperazin-2-one]	14.4
Cc1nnn(-c2ccc(C(F)F)cc2)c1COc1ccc(N2C(=O)NC(C)(C)C2=O)nn1 [Example 25, 3-(6-((1-(4-(Difluoromethyl)phenyl)-4-methyl-1H-1,2,3-triazol-5-yl)methoxy)pyridazin-3-yl)-5,5-dimethylimidazolidine-2,4-dione]	24.4
Cc1nnn(-c2ccc(C(F)F)cc2)c1COc1ccc(N2CCN[C@H](C(=O)N(C)C)C2)nn1 [Example 31, (S)-4-(6-((1-(4-(Difluoromethyl)phenyl)-4-methyl-1H-1,2,3-triazol-5-yl)methoxy)pyridazin-3-yl)-N,N-dimethylpiperazine-2-carboxamide]	7.45
CCNC(=O)[C@H]1CCN1c1ccc(OCc2c(C)nnn2-c2ccc(C(F)F)cc2)nn1 [Example 40]	33.6
CCNC(=O)[C@H]1CCCN1c1ccc(OCc2c(C)nnn2-c2ccc(C(F)F)cc2)nn1 [Example 41, (R)-1-(6-((1-(4-(Difluoromethyl)phenyl)-4-methyl-1H-1,2,3-triazol-5-yl)methoxy)pyridazin-3-yl)-N-ethylpyrrolidine-2-carboxamide]	42.6
CCNC(=O)[C@@H]1CCCN1c1ccc(OCc2c(C)nnn2-c2ccc(C(F)F)cc2)nn1 [Example 42, (S)-1-(6-((1-(4-(Difluoromethyl)phenyl)-4-methyl-1H-1,2,3-triazol-5-yl)methoxy)pyridazin-3-yl)-N-ethylpyrrolidine-2-carboxamide]	115
Cc1nnn(-c2ccc(C(F)F)cc2)c1COc1ccc(N2CC(C(=O)Nc3ccccc3)C2)nn1 [Example 47, 1-(6-((1-(4-(Difluoromethyl)phenyl)-4-methyl-1H-1,2,3-triazol-5-yl)methoxy)pyridazin-3-yl)-N-phenylazetidine-3-carboxamide]	1.1
Cc1nnn(-c2ccc(C(F)F)cc2)c1COc1ccc(N2CC(C(=O)NCc3ccccc3)C2)nn1 [Example 48, N-Benzyl-1-(6-((1-(4-(difluoromethyl)phenyl)-4-methyl-1H-1,2,3-triazol-5-yl)methoxy)pyridazin-3-yl)azetidine-3-carboxamide]	2.38
Cc1nnn(-c2ccc(C(F)F)cc2)c1COc1ccc(N2CC(C(=O)NC3CCOC3)C2)nn1 (stereo not shown) [Example 51, 1-(6-((1-(4-(Difluoromethyl)phenyl)-4-methyl-1H-1,2,3-triazol-5-yl)methoxy)pyridazin-3-yl)-N-(tetrahydrofuran-3-yl)azetidine-3-carboxamide]	6.17
CCNC(=O)CC1CN(c2ccc(OCc3c(C)nnn3-c3ccc(C(F)F)cc3)nn2)CCO1 (stereo not shown) [Example 63, 2-(4-(6-((1-(4-(Difluoromethyl)phenyl)-4-methyl-1H-1,2,3-triazol-5-yl)methoxy)pyridazin-3-yl)morpholin-2-yl)-N-ethylacetamide]	1.49
Cc1nnn(-c2ccc(C(F)F)cc2)c1COc1ccc(N2CCNCC2=O)nn1 [Example 71, 1-(6-((1-(4-(Difluoromethyl)phenyl)-4-methyl-1H-1,2,3-triazol-5-yl)methoxy)pyridazin-3-yl)piperazin-one]	8.86
Cc1nnn(-c2ccc(Cl)cn2)c1COc1ccc(N2CCNC(=O)C2)nn1 [Example 72, 4-(6-((1-(5-Chloropyridin-2-yl)-4-methyl-1H-1,2,3-triazol-5-yl)methoxy)pyridazin-3-yl)piperazin-2-one]	0.46
Cc1nnn(-c2ccc(C(F)F)nc2)c1COc1ccc(N2CCNC(=O)C2)nn1 [Example 74, 4-(6-((1-(6-(Difluoromethyl)pyridin-3-yl)-4-methyl-1H-1,2,3-triazol-5-yl)methoxy)pyridazin-3-yl)piperazin-2-one]	23.6
Cc1nnn(-c2ccc(C#N)cc2)c1COc1ccc(N2CCNC(=O)C2)nn1 [Example 75, 4-(6-((1-(4-Cyanophenyl)-4-methyl-1H-1,2,3-triazol-5-yl)methoxy)pyridazin-3-yl)piperazin-2-one]	40.2

The remaining lines, values ahead:

Ki [nM]	Compound
1.98	COC1CCN(c2ccc(OCc3c(C)nnn3-c3ccc(C(F)F)cc3)nn2)C1 (stereo not shown) [Example 1, 3-((1-(4-(Difluoromethyl)phenyl)-4-methyl-1H-1,2,3-triazol-5-yl)methoxy)-6-(3-methoxypyrrolidin-1-yl)pyridazine]
7.25	Cc1nnn(-c2ccc(C(F)F)cc2)c1COc1ccc(N2CCCNC(=O)C2)nn1 [Example 4, 4-(6-((1-(4-(Difluoromethyl)phenyl)-4-methyl-1H-1,2,3-triazol-5-yl)methoxy)pyridazin-3-yl)-1,4-diazepan-2-one]
1.46	Cc1nnn(-c2ccc(C(F)F)cc2)c1COc1ccc(N2CCN3C(=O)COC[C@@H]3C2)nn1 [Example 9, (S)-8-(6-((1-(4-(Difluoromethyl)phenyl)-4-methyl-1H-1,2,3-triazol-5-yl)methoxy)pyridazin-3-yl)hexahydropyrazino[2,1-c][1,4]oxazin-4(3H)-one]
0.89	Cc1nnn(-c2ccc(C(F)F)cc2)c1COc1ccc(N2CCC(N(C)C)C2)nn1 (stereo not shown) [Example 12, 1-(6-((1-(4-(Difluoromethyl)phenyl)-4-methyl-1H-1,2,3-triazol-5-yl)methoxy)pyridazin-3-yl)-N,N-dimethylpyrrolidin-3-amine]
2.94	Cc1nnn(-c2ccc(C(F)F)cc2)c1COc1ccc(N2CCN[C@H](C(N)=O)C2)nn1 [Example 32, (S)-4-(6-((1-(4-(Difluoromethyl)phenyl)-4-methyl-1H-1,2,3-triazol-5-yl)methoxy)pyridazin-3-yl)piperazine-2-amide]
3.31	Cc1nnn(-c2ccc(C(F)F)cc2)c1COc1ccc(N2CCN[C@H](C#N)C2)nn1 [Example 33, (S)-4-(6-((1-(4-(Difluoromethyl)phenyl)-4-methyl-1H-1,2,3-triazol-5-yl)methoxy)pyridazin-3-yl)piperazine-2-carbonitrile]
2.48	CNC(=O)[C@@H]1CN(c2ccc(OCc3c(C)nnn3-c3ccc(C(F)F)cc3)nn2)CCO1 [Example 38, (S)-4-(6-((1-(4-(Difluoromethyl)phenyl)-4-methyl-1H-1,2,3-triazol-5-yl)methoxy)pyridazin-3-yl)-N-methylmorpholine-2-carboxamide]
1.59	CCNC(=O)C1C2CN(c3ccc(OCc4c(C)nnn4-c4ccc(C(F)F)cc4)nn3)CC21 (stereo not shown) [Example 39, 3-(6-((1-(4-(Difluoromethyl)phenyl)-4-methyl-1H-1,2,3-triazol-5-yl)methoxy)pyridazin-3-yl)-N-ethyl-3-azabicyclo[3.1.0]hexane-6-carboxamide]
6.5	COCCNC(=O)C1CN(c2ccc(OCc3c(C)nnn3-c3ccc(C(F)F)cc3)nn2)C1 [Example 49, 1-(6-((1-(4-(Difluoromethyl)phenyl)-4-methyl-1H-1,2,3-triazol-5-yl)methoxy)pyridazin-3-yl)-N-(2-methoxyethyl)azetidine-3-carboxamide]
2.97	Cc1nnc(C2CN(c3ccc(OCc4c(C)nnn4-c4ccc(C(F)F)cc4)nn3)C2)o1 [Example 53, 2-(1-(6-((1-(4-(Difluoromethyl)phenyl)-4-methyl-1H-1,2,3-triazol-5-yl)methoxy)pyridazin-3-yl)azetidin-3-yl)-5-methyl-1,3,4-oxadiazole]
